Data on 24 compounds can be found in US12441755B2, “Galactoside inhibitor of galectins” (GALECTO BIOTECH AB, priority 2019, dated 2025).

Test [1] deals with Gal-1 (Homo sapiens, UniProt P09382). In words: Fluorescence anisotropy assay, compound as inhibitor of galectin / fluorescein tagged saccharide probe interaction. The test is classed as binding. How it is done: (§1) The affinity of Example 1-29 for galectins were determined by a fluorescence anisotropy assay where the compound was used as an inhibitor of the interaction between galectin and a fluorescein tagged saccharide probe as described Sörme, P., Kahl-Knutsson, B., Huflejt, M., Nilsson, U. J., and Leffler H. (2004) Fluorescence polarization as an analytical tool to evaluate galectin-ligand interactions. Anal. Biochem. 334: 36-47, (Sörme et al., 2004) and Monovalent interactions of Galectin-1 By Salomonsson, Emma; Larumbe, Amaia; Tejler, Johan; Tullberg, Erik; Rydberg, Hanna; Sundin, Anders; Khabut, Areej; Frejd, Torbjorn; Lobsanov, Yuri D.; Rini, James M.; et al, From Biochemistry (2010), 49(44), 9518-9532, (Salomonsson et al., 2010).
A general note: Fluorescence polarisation rises when a labelled molecule tumbles more slowly, as on binding a larger partner.

Test [2] deals with Gal-3 (Homo sapiens, UniProt P17931). The description is as above. The test is classed as binding. On the procedure:
as §1

Test [3] has as its system galectins. The note with it: compared with lactose; cited from earlier work.

Chain of Gal-1 (P09382 whole entry): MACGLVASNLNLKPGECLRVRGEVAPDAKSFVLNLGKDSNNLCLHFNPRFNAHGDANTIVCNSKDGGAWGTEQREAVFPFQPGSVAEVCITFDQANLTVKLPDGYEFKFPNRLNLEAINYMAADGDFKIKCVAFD
Chain of Gal-3 (P17931 whole entry): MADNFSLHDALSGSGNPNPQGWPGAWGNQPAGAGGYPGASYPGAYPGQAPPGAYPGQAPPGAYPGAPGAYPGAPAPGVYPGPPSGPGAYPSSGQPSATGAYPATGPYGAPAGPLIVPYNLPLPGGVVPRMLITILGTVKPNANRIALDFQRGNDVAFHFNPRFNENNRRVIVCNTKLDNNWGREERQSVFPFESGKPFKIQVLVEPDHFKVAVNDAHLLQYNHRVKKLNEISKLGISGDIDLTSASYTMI

Usually Kd stands for the equilibrium constant for the complex coming apart. The low end stands for higher affinity, the high end for lower affinity. For `Cc1nc2ccc(-n3cnnc3[C@@H]3O[C@H](CO)[C@H](O)[C@H](n4cc(-c5nc(Cl)cs5)nn4)[C@H]3O)cc2s1` [Example 1, 6-{3-{3-[4-(4-Chlorothiazol-2-yl)-1H-1,2,3-triazol-1-yl]-3-deoxy-β-D-galactopyranosyl}-4H-1,2,4-triazol-4-yl}-2-methylbenzothiazole], the equilibrium dissociation constant (Kd) is 750 nM in test [1] and 150 nM in test [2].
As for `Cc1nc2ccc(-n3cnnc3[C@@H]3O[C@H](CO)[C@H](O)[C@H](n4cc(-c5csc(N)n5)nn4)[C@H]3O)cc2s1` [Example 6, 6-{3-{3-[4-(2-Aminothiazol-4-yl)-1H-1,2,3-triazol-1-yl]-3-deoxy-β-D-galactopyranosyl}-4H-1,2,4-triazol-4-yl}-2-methylbenzothiazole], the results for the Kd in test [1] and in test [2] were 1600 nM and 1900 nM, respectively.
The matching figures for `Cc1nc2ccc(-n3cnnc3[C@@H]3O[C@H](CO)[C@H](O)[C@H](n4cc(-c5csc(O)n5)nn4)[C@H]3O)cc2s1` [Example 8, 6-{3-{3-Deoxy-3-[4-(2-hydroxythiazol-4-yl)-1H-1,2,3-triazol-1-yl]-β-D-galactopyranosyl}-4H-1,2,4-triazol-4-yl}-2-methylbenzothiazole]: 320 nM and 1900 nM.
The matching figures for `Cc1nnc([C@@H]2O[C@H](CO)[C@H](O)[C@H](n3cc(-c4nc(Cl)cs4)nn3)[C@H]2O)n1-c1cc(Cl)ccc1C(F)(F)F` [Example 9, 1-{3-{3-[4-(4-Chlorothiazol-2-yl)-1H-1,2,3-triazol-1-yl]-3-deoxy-β-D-galactopyranosyl}-5-methyl-4H-1,2,4-triazol-4-yl}-5-chloro-2-(trifluoromethyl)benzene]: 290 nM and 41 nM.
The matching figures for `Cc1nc([C@@H]2O[C@H](CO)[C@H](O)[C@H](n3cc(-c4nccs4)nn3)[C@H]2O)n(-c2ccc3nc(C)sc3c2)n1` [Example 10, 6-{5-{3-Deoxy-3-[4-(2-thiazolyl)-1H-1,2,3-triazol-1-yl]β-D-galactopyranosyl}-3-methyl-1H-1,2,4-triazol-1-yl}-2-methylbenzothiazole]: 5200 nM and 2300 nM.
Turning to `Cc1csc(-c2cn([C@H]3[C@@H](O)[C@@H](CO)O[C@@H](c4nnc(C)n4-c4cc(Cl)ccc4C(F)(F)F)[C@@H]3O)nn2)n1` [Example 11, 5-Chloro-1-{3-{3-deoxy-3-[4-(4-methylthiazol-2-yl)-1H-1,2,3-triazol-1-yl]-β-D-galactopyranosyl}-5-methyl-4H-1,2,4-triazol-4-yl}-2-(trifluoromethyl)benzene], the Kd in test [1] came to 2100 nM; in test [2], 700 nM.
As to `Cc1nnc([C@@H]2O[C@H](CO)[C@H](O)[C@H](n3cc(-c4csc(O)n4)nn3)[C@H]2O)n1-c1cc(Cl)ccc1C(F)(F)F` [Example 12, 5-Chloro-1-{3-{3-deoxy-3-[4-(2-hydroxythiazol-4-yl)-1H-1,2,3-triazol-1-yl]β-D-galactopyranosyl}-5-methyl-4H-1,2,4-triazol-4-yl}-2-(trifluoromethyl)benzene], the dissociation constant Kd in test [1] turned out to be 190 nM; in test [2], 520 nM.
The matching figures for `Cc1nc([C@@H]2O[C@H](CO)[C@H](O)[C@H](n3cc(-c4csc(C)n4)nn3)[C@H]2O)n(-c2ccc3nc(C)sc3c2)n1` [Example 13, 6-{5-{3-Deoxy-3-[4-(2-methylthiazol-4-yl)-1H-1,2,3-triazol-1-yl]β-D-galactopyranosyl}-3-methyl-1H-1,2,4-triazol-1-yl}-2-methylbenzothiazole]: 9000 nM and 1800 nM.
The matching figures for `Cc1nc([C@@H]2O[C@H](CO)[C@H](O)[C@H](n3cc(-c4cncs4)nn3)[C@H]2O)n(-c2ccc3nc(C)sc3c2)n1` [Example 14, 6-{5-{3-Deoxy-3-[4-(5-thiazolyl)-1H-1,2,3-triazol-1-yl]β-D-galactopyranosyl}-3-methyl-1H-1,2,4-triazol-1-yl}-2-methylbenzothiazole]: 19500 nM and 2300 nM.
The matching figures for `Cc1nc([C@@H]2OC(CO)[C@H](O)C(n3cc(-c4csc(N)n4)nn3)C2O)n(-c2cc(Cl)ccc2C(F)(F)F)n1` (some centres unmarked) [Example 15]: 1500 nM and 1300 nM.
For `Cc1nc([C@@H]2OC(CO)[C@H](O)C(n3cc(-c4nc(Cl)cs4)nn3)C2O)n(-c2cc(Cl)ccc2C(F)(F)F)n1` (some centres unmarked) [Example 16], the Kd in test [1] is 900 nM; in test [2] it was 39 nM.
The matching figures for `CO[C@@H]1[C@@H](n2cc(-c3nc(Cl)cs3)nn2)[C@@H](O)[C@@H](CO)O[C@H]1c1nnc(C)n1-c1cc(Cl)ccc1C(F)(F)F` [Example 17, 1-{3-{3-[4-(4-Chlorothiazol-2-yl)-1H-1,2,3-triazol-1-yl]-3-deoxy-2-O-methyl-β-D-galactopyranosyl}-5-methyl-4H-1,2,4-triazol-4-yl}-5-chloro-2-(trifluoromethyl)benzene]: 520 nM and 26 nM.
The matching figures for `Cc1nc([C@@H]2O[C@H](CO)[C@H](O)[C@H](n3cc(-c4nc(Cl)cs4)nn3)[C@H]2O)n(-c2cc(Cl)cnc2C2CC2)n1` [Example 18, 3-{5-{3-[4-(4-Chlorothiazol-2-yl)-1H-1,2,3-triazol-1-yl]-3-deoxy-β-D-galactopyranosyl}-3-methyl-1H-1,2,4-triazol-1-yl}-5-chloro-2-cyclopropylpyridine]: 660 nM and 130 nM.
The matching figures for `Cc1nnc([C@@H]2O[C@H](CO)[C@H](O)[C@H](n3cc(-c4csc(N)n4)nn3)[C@H]2O)n1-c1cc(Cl)ccc1C(F)(F)F` [Example 19, 1-{3-{3-[4-(2-Aminothiazol-4-yl)-1H-1,2,3-triazol-1-yl]-3-deoxy-β-D-galactopyranosyl}-5-methyl-4H-1,2,4-triazol-4-yl}-5-chloro-2-(trifluoromethyl)benzene]: 730 nM and 820 nM.
With `Cc1nnc([C@@H]2O[C@H](CO)[C@H](O)[C@H](n3cc(-c4nccs4)nn3)[C@H]2O)n1-c1cc(Cl)ccc1C(F)(F)F` [Example 20, 5-Chloro-1-{3-{3-deoxy-3-[4-(2-thiazolyl)-1H-1,2,3-triazol-1-yl]β-D-galactopyranosyl}-5-methyl-4H-1,2,4-triazol-4-yl}-2-(trifluoromethyl)benzene], the equilibrium dissociation constant (Kd) in test [1] is 690 nM; in test [2], 150 nM.
For `Cc1nc2ccc(-n3cnnc3[C@@H]3O[C@H](CO)[C@H](O)[C@H](n4cc(-c5nccs5)nn4)[C@H]3O)cc2s1` [Example 21, 6-{3-{3-Deoxy-3-[4-(2-thiazolyl)-1H-1,2,3-triazol-1-yl]-β-D-galactopyranosyl}-4H-1,2,4-triazol-4-yl}-2-methylbenzothiazole], the values for the equilibrium dissociation constant (Kd) in test [1] and in test [2] were 3000 nM and 1200 nM, respectively.
The matching figures for `Cc1csc(-c2cn([C@H]3[C@@H](O)[C@@H](CO)O[C@@H](c4nncn4-c4ccc5nc(C)sc5c4)[C@@H]3O)nn2)n1` [Example 22, 6-{3-{3-Deoxy-3-[4-(4-methylthiazol-2-yl)-1H-1,2,3-triazol-1-yl]-β-D-galactopyranosyl}-4H-1,2,4-triazol-4-yl}-2-methylbenzothiazole]: 2400 nM and 1800 nM.
The matching figures for `Cc1nc([C@@H]2O[C@H](CO)[C@H](O)[C@H](n3cc(-c4nc(Cl)cs4)nn3)[C@H]2O)n(-c2ccc3nc(C)sc3c2)n1` [Example 23, 6-{5-{3-[4-(4-Chlorothiazol-2-yl)-1H-1,2,3-triazol-1-yl]-3-deoxy-β-D-galactopyranosyl}-3-methyl-1H-1,2,4-triazol-1-yl}-2-methylbenzothiazole]: 2100 nM and 140 nM.
On to `Cc1nc([C@@H]2O[C@H](CO)[C@H](O)[C@H](n3cc(-c4csc(N)n4)nn3)[C@H]2O)n(-c2ccc3nc(C)sc3c2)n1` [Example 24, 6-{5-{3-[4-(2-Aminothiazol-4-yl)-1H-1,2,3-triazol-1-yl]-3-deoxy-β-D-galactopyranosyl}-3-methyl-1H-1,2,4-triazol-1-yl}-2-methylbenzothiazole], for which the dissociation constant Kd in test [1] was 3200 nM; in test [2], 2600 nM.
Regarding `CO[C@@H]1[C@@H](n2cc(-c3nc(Cl)cs3)nn2)[C@@H](O)[C@@H](CO)O[C@H]1c1nnc(C)n1-c1ccc2nc(C)sc2c1` [Example 25, 6-{3-{3-[4-(4-Chlorothiazol-2-yl)-1H-1,2,3-triazol-1-yl]-3-deoxy-2-O-methyl-β-D-galactopyranosyl}-5-methyl-4H-1,2,4-triazol-4-yl}-2-methylbenzothiazole], the equilibrium dissociation constant (Kd) in test [1] amounted to 340 nM; in test [2] it was 70 nM.
Turning to `Cc1nc2ccc(-n3c(C)nnc3[C@@H]3O[C@H](CO)[C@H](O)[C@H](n4cc(-c5nc(Cl)cs5)nn4)[C@H]3O)cc2s1` [Example 26, 6-{3-{3-[4-(4-Chlorothiazol-2-yl)-1H-1,2,3-triazol-1-yl]-3-deoxy-β-D-galactopyranosyl}-5-methyl-4H-1,2,4-triazol-4-yl}-2-methylbenzothiazole], the Kd in test [1] came out at 590 nM; in test [2] it was 65 nM.
`Cc1nnc([C@@H]2OC(CO)[C@H](O)C(n3cc(-c4nc(Cl)cs4)nn3)C2O)n1-c1ccc2ncn(C)c2c1` (stereo partly drawn) [Example 27, 5-{3-{3-[4-(4-Chlorothiazol-2-yl)-1H-1,2,3-triazol-1-yl]-3-deoxy-β-D-galactopyranosyl}-5-methyl-4H-1,2,4-triazol-4-yl}-N-3-methylbenzimidazole]: the dissociation constant Kd in test [1] turned out to be 2600 nM; in test [2], 36 nM.
Turning to `Cc1nc2ccc(-n3nccc3[C@@H]3OC(CO)[C@H](O)C(n4cc(-c5nc(Cl)cs5)nn4)C3O)cc2s1` (some centres unmarked) [Example 29], the dissociation constant (Kd) in test [1] was 33 nM; in test [2], 600 nM.
Take `O=C[C@H](O)[C@@H](O)[C@@H](O)[C@H](O)CO` [Galactose, D-galactose]: the “affinity relative to lactose, times lower” value in test [3] was 50-100 times lower.
